Laboratory results taken from ChEMBL document CHEMBL6115048, “Uncovering α-Selectivity for Liver X Receptor Agonists for Lipotoxic Cancer Therapies” (J Med Chem, 2025).
Calls of active or inactive are those of the source. The calls are words filed in the database; no cut-off is given here.

Tests used:
[1] = biological target: T1, Aryl hydrocarbon receptor (Homo sapiens, UniProt P35869); test: Agonist activity at AhR (unknown origin) transfected in human HepG2 cells co-transfected with renilla reniformis luciferase reporter at 10 uM incubated for 24 hrs by dual-luciferase reporter gene assay; assay type: cell-based; conditions: hepg2, 24 h
T1 sequence (P35869 whole entry): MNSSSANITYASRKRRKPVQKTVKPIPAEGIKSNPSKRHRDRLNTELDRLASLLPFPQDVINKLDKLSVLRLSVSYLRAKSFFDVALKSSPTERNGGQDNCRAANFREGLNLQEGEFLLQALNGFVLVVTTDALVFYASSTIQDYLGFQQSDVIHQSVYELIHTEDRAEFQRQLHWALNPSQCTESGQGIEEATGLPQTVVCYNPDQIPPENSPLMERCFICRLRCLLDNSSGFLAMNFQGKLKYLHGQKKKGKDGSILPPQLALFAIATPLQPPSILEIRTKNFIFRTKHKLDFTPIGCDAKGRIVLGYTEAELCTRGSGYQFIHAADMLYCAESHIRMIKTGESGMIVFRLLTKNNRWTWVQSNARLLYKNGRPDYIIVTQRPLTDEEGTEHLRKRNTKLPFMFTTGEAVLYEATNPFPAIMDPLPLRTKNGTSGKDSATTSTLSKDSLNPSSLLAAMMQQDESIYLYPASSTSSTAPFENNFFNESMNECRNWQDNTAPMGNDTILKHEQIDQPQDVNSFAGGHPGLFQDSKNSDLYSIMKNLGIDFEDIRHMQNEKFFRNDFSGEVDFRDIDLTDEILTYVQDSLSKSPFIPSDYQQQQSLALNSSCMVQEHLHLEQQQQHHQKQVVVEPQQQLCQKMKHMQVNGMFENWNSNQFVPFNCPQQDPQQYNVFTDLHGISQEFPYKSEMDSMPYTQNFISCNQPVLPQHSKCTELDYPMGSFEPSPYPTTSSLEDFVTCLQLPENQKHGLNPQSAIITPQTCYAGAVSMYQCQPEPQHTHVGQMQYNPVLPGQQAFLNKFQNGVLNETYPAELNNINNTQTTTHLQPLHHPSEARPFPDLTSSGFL

[2] = tested on: AML12; test: Cytotoxicity against mouse AML12 cells assessed as reduction in cell viability at 0.01 to 100 uM measured after 5 days in presence of sorafenib by CellTiter-Glo assay; assay type: toxicity, cell-based; conditions: aml12, 120 h, dose 0.01-100 µM, time 5 day
[3] = biological target: T2, Peroxisome proliferator-activated receptor gamma (Homo sapiens) (UniProt P37231); test: Agonist activity at PPARgamma (unknown origin) transfected in human HepG2 cells co-transfected with renilla reniformis luciferase reporter at 10 uM incubated for 24 hrs by dual-luciferase reporter gene assay; assay type: cell-based
T2 sequence (whole entry): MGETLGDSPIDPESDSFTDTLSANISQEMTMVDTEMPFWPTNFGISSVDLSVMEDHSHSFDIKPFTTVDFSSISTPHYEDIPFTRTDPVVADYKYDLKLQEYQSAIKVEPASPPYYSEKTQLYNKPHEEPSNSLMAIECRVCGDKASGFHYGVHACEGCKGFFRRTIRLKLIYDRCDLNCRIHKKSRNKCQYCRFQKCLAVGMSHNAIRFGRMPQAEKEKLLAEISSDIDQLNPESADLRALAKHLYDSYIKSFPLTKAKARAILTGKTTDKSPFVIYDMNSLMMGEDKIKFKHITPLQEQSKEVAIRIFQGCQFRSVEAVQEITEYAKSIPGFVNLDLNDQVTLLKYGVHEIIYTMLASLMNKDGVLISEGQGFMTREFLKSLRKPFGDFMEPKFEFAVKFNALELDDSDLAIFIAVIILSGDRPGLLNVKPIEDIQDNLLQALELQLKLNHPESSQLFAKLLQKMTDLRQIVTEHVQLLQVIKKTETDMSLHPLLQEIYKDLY

[4] = tested on: Hep 3B2; test: Antiproliferative activity against human Hep3B cells assessed as reduction in cell viability measured after 5 days by Celltiter-glo assay; assay type: functional, cell-based; conditions: time 5.0 day
[5] = tested on: Hep 3B2; test: Induction of endoplasmic reticulum (ER) stress in human Hep3B cells assessed as increase in GADD34 expression measured after 3 days in presence of sorafenib by Western blot analysis; assay type: functional, cell-based; conditions: time 3.0 day
[6] = tested on: Hepatocellular carcinoma organoid; test: Antiproliferative activity against C57BL/6 mouse Hepatocellular carcinoma organoids harboring myristoylated Akt1 and overexpressing Myc assessed as reduction in cell viability at 1 to 5 uM measured after 5 days in presence of sorafenib by Celltiter-glo assay; assay type: functional, tissue-based; conditions: Neoplasm, dose 1-5 µM, time 5.0 day
[7] = biological target: T3, Estrogen receptor (Homo sapiens) (UniProt P03372); test: Agonist activity at ERalpha (unknown origin) transfected in human HepG2 cells co-transfected with renilla reniformis luciferase reporter at 10 uM incubated for 24 hrs by dual-luciferase reporter gene assay; assay type: cell-based
T3 sequence (whole entry): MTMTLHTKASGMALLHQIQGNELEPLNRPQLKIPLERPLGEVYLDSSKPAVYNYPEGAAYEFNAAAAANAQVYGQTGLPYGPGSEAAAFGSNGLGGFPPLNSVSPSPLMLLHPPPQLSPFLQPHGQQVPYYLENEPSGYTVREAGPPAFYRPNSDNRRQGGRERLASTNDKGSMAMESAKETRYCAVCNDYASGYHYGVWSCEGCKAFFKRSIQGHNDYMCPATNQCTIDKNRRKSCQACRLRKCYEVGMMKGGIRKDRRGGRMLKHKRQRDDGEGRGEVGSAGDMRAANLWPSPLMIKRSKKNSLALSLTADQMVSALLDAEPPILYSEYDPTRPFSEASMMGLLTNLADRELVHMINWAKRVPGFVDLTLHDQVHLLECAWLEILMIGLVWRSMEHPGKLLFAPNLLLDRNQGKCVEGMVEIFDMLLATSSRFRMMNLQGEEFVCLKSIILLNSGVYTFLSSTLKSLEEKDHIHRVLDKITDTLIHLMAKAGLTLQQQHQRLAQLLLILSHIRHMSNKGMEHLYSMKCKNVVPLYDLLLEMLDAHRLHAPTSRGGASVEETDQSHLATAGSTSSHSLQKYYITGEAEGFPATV

Activity [1]: Not_active | Activity [3]: inactive | Activity [7]: inactive
SMILES: O=C1C(Nc2ccc(N3CCCCC3)cc2)=C(c2ccccc2)C(=O)N1Cc1ccccc1
Activity [2]: Toxic | Activity [4]: inactive | Activity [5]: Active | Activity [6]: Active
